Reference: patent US5691338A, “1,2-dithiole-3 thiones for the treatment of reverse transcriptase-dependent viral infections” (priority 1995, dated 1997)
Read-outs that look alike come from different tables or passages of the source.

Test system: quinone reductase (QR) in H9 cells
Experiment: Elevation of quinone reductase (QR) in H9 cells
Type: cell-based, human
Settings: for fold induction at 30 µM / fold induction at 60 µM / fold induction at 120 µM: Homo sapiens, read-out: Quinone reductase, treated to control value
Description: Five ml of medium was added to T-25 flasks and DMSO containing tests compounds were added to a final concentration of 0.1%. Control medium contained 0.1% DMSO. After the drugs were added, 5×10^6 cells in 5 ml of medium was added to each T-25 flask. The cells were grown at 37° C. in a humidified incubator supplemented with 5% CO2 until harvested (N=3 flasks/group). At the indicated times, cells were isolated by centrifugation (500×g×10 min) and were washed three times by adding 10 ml of ice-cold DPBS, mixing, and centrifuging in a refrigerated centrifuge (500×g×10 min) to isolate the cell pellets. The cells were then lysed by the addition of 400 μl of ice-cold DPBS containing 0.5% Triton X-100 and vortexing. Supernatants were then isolated by centrifuging the lysates (5000×g×20 min). Samples were kept on ice or refrigerated until the reagents for QR or GSH spectrophotometric assays were added to the aliquoted microtiter plates. QR levels were determined by aliquoting 10 μl/well of supernatant in a 96-well plate and measuring the activity by the assay described by Prochaska and Santamaria (20) except that the final NADP^+ concentration was 200 μM (21). Samples were assayed in quadruplicate, and dicoumarol inhibitable-rates (which generally represented less than 5% of the total rate) were also measured. Spectrophotometric blanks contained 10 μl of DPBS with 0.5% Triton X-100. For the GSH assay, 300 μl of sample was placed in a centricon-10microconcentrator and centrifuged (5000×g×45 min) until enough ultrafiltrate could be collected. 50 μl/well of sample in quadruplicate was placed in a 96 well "half-area" plate after which 20 μl of 1 mM Ellman's reagent dissolved in DPBS was added. The yellow color (22) developed within 5 min and was scanned with a uvmax microtiter scanner (Palo Alto, Calif.) at 405 nm. Spectrophotometric blanks contained 50 μl DPBS with 0.5% Triton X-100 and 20 μl of 1 mM Ellman's reagent in DPBS. The optical densities of the specimens were calibrated to a GSH standard curve. Protein contents were determined in 3 ml cuvettes by the Bradford method (23). The protein content in the ultrafiltrates employed for GSH determinations were negligible (<0.01 mg/ml).
We confirmed that the induction of QR in microtiter wells mirrored our results in T-25 flasks by using the method of Prochaska and Santamaria (20). Medium (100 μl) containing 0.1% final concentration DMSO was added to all wells except columns designated to contain the highest concentration of drug or spectrophotometric blanks in duplicate sets of U-bottomed microtiter plates. 200 μl of media containing drug (final DMSO concentration=0.1%) was added to the empty column of wells and then diluted in 2-fold serial dilutions across. After the serial dilutions were performed, 100 μl of media containing 1×10^6 cells/ml was added to each well, and the plates were placed in a 37° C. incubator for 48 h. One set of plates was assayed as described (21) for QR activity, the other was assayed for cell number by the method for Alley et al. (24).

## Cc1c(-c2cnccn2)ssc1=S [compound 11, 4-methyl-5-(2-pyrazinyl)-1,2-dithiole-3-thione]
24 h, 30 μM
  Quinone Reductase Specific Activity: 62.0 ± 2.0 nmol/min/mg
24 h, 60 μM
  Quinone Reductase Specific Activity: 83.5 ± 1.7 nmol/min/mg
24 h, 120 μM
  Quinone Reductase Specific Activity: 109 ± 28 nmol/min/mg
48 h, 30 μM
  Quinone Reductase Specific Activity: 52.7 ± 2.9 nmol/min/mg
48 h, 60 μM
  Quinone Reductase Specific Activity: 68.0 ± 2.9 nmol/min/mg
48 h, 120 μM
  Quinone Reductase Specific Activity: 79.7 ± 0.28 nmol/min/mg
72 h, 30 μM
  Quinone Reductase Specific Activity: 40.4 ± 4.7 nmol/min/mg
72 h, 60 μM
  Quinone Reductase Specific Activity: 47.3 ± 4.6 nmol/min/mg
72 h, 120 μM
  Quinone Reductase Specific Activity: 75.0 ± 8.6 nmol/min/mg
H9, 24 h
  fold induction at 30 µM: 1.1
  fold induction at 60 µM: 1.48
  fold induction at 120 µM: 1.93
H9, 48 h
  fold induction at 30 µM: 1.52
  fold induction at 60 µM: 1.96
  fold induction at 120 µM: 2.28
H9, 72 h
  fold induction at 30 µM: 0.86
  fold induction at 60 µM: 1.01
  fold induction at 120 µM: 1.6
dose- and time-dependent, H9 cells
  elevation of QR: least effective inducer of QR and GSH
